Source: article PMC7587962, “Evaluation of Cytotoxicity and α-Glucosidase Inhibitory Activity of Amide and Polyamino-Derivatives of Lupane Triterpenoids” (Molecules, 2020)
Where two headings read alike, the source gives them in different places.

How the values were obtained:
Renal Cancer subpanel = assay: NCI-60 screen, subpanel Renal Cancer
[1] = tested on: 60 human tumor cell lines; assay: cells
HOP-62 = assay: NCI-60 SRB screen: non-small cell lung cancer HOP-62; type: cell-based, human; conditions: HOP-62
SF-268 = assay: NCI-60 SRB screen: CNS cancer SF-268; type: cell-based, human; conditions: SF-268
MDA-MB-468 = assay: NCI-60 SRB screen: breast cancer MDA-MB-468; type: cell-based, human
A549/ATCC = assay: NCI-60 SRB screen: non-small cell lung cancer A549/ATCC; type: cell-based, human; conditions: A549/ATCC
Leukemia subpanel = assay: NCI-60 screen, subpanel Leukemia
SK-MEL-28 = assay: NCI-60 SRB screen: melanoma SK-MEL-28; type: cell-based, human; conditions: SK-MEL-28
NSCL cancer subpanel = assay: NCI-60 screen, subpanel NSCL cancer
EKVX = assay: NCI-60 SRB screen: non-small cell lung cancer EKVX; type: cell-based, human
SNB-19 = assay: NCI-60 SRB screen: CNS cancer SNB-19; type: cell-based, human; conditions: SNB-19
KM12 = assay: NCI-60 SRB screen: colon cancer KM12; type: cell-based, human; conditions: KM12
SW-620 = assay: NCI-60 SRB screen: colon cancer SW-620; type: cell-based; conditions: Homo sapiens, 48 h, SW-620
786-0 = assay: NCI-60 SRB screen: renal cancer 786-0; type: cell-based, human; conditions: 786-0
BT-549 = assay: NCI-60 SRB screen: breast cancer BT-549; type: cell-based, human; conditions: BT-549
OVCAR-4 = assay: NCI-60 SRB screen: ovarian cancer OVCAR-4; type: cell-based; conditions: Homo sapiens; OVCAR-4; five concentrations, 48 h, SRB; read-out: GI50
HT29 = assay: NCI-60 SRB screen: colon cancer HT29; type: cell-based; conditions: Homo sapiens, HT29
NCI-H226 = assay: NCI-60 SRB screen: non-small cell lung cancer NCI-H226; type: cell-based, human; conditions: NCI-H226
T-47D = assay: NCI-60 SRB screen: breast cancer T-47D; type: cell-based, human; conditions: T-47D
K-562 = assay: NCI-60 SRB screen: leukemia K-562; type: cell-based, human; conditions: K-562
NCI-H322M = assay: NCI-60 SRB screen: non-small cell lung cancer NCI-H322M; type: cell-based, human
NCI-H522 = assay: NCI-60 SRB screen: non-small cell lung cancer NCI-H522; type: cell-based, human; conditions: NCI-H522
HCC-2998 = assay: NCI-60 SRB screen: colon cancer HCC-2998; type: cell-based, human; conditions: HCC-2998
MALME-3M = assay: NCI-60 SRB screen: melanoma MALME-3M; type: cell-based, human; conditions: MALME-3M
Ovarian Cancer subpanel = assay: NCI-60 screen, subpanel Ovarian Cancer
CAKI-1 = assay: NCI-60 SRB screen: renal cancer CAKI-1; type: cell-based, human; conditions: CAKI-1
SF-539 = assay: NCI-60 SRB screen: CNS cancer SF-539; type: cell-based, human; conditions: SF-539
SK-OV-3 = assay: NCI-60 SRB screen: ovarian cancer SK-OV-3; type: cell-based, human; conditions: SK-OV-3
HCT-15 = assay: NCI-60 SRB screen: colon cancer HCT-15; type: cell-based, human; conditions: HCT-15
UO-31 = assay: NCI-60 SRB screen: renal cancer UO-31; type: cell-based, human; conditions: UO-31
SK-MEL-2 = assay: NCI-60 SRB screen: melanoma SK-MEL-2; type: cell-based, human; conditions: SK-MEL-2
NCI-H23 = assay: NCI-60 SRB screen: non-small cell lung cancer NCI-H23; type: cell-based, human; conditions: NCI-H23
PC-3 = assay: NCI-60 SRB screen: prostate cancer PC-3; type: cell-based, human; conditions: PC-3
Melanoma subpanel = assay: NCI-60 screen, subpanel Melanoma
[2] = Homo sapiens, five concentrations, 48 h, SRB, read-out: GI50

For `C=C(C)[C@@H]1CC[C@]2(C(=O)NCCCN)CC[C@]3(C)[C@H](CC[C@@H]4[C@@]5(C)CCC(=O)C(C)(C)[C@@H]5CC[C@]43C)[C@@H]12` [Compound 10], the “MID b, average sensitivity of all cell line of particular subpanel” value (from here on “MID b, average sensitivity”) (Renal Cancer subpanel) was 23.80 µM, the “Selectivity, ratio MID a: MID b” value (Renal Cancer subpanel) was 0.86 and the GI50 ([1]; read-out: GI50 ranges against all panels of NCI60) was 6.95 to 38.9 µM. For the same molecule, the GI50 ([1]; read-out: MID a, average sensitivity of all cell line (GI50-MID)) was 20.5 µM, the “Percentage Cell Growth” value (HOP-62; single dose 10 µM) was −26.80% and the GI50 (HOP-62; [2]) was 18.3 µM. The GI50 (SF-268; [2]) was 23 µM, the “Percentage Cell Growth” value (SF-268; single dose 10 µM) was −16.88% and the GI50 (MDA-MB-468; [2]) was 12.6 µM. For the same molecule, the “Percentage Cell Growth” value (MDA-MB-468; single dose 10 µM) was −19.87%, the “Percentage Cell Growth” value (A549/ATCC; single dose 10 µM) was −4.70% and the GI50 (A549/ATCC; [2]) was 19.6 µM. For the same molecule, the “MID b, average sensitivity” value (Leukemia subpanel) was 14.59 µM, the “Selectivity, ratio MID a: MID b” value (Leukemia subpanel) was 1.40 and the GI50 (SK-MEL-28; [2]) was 22.1 µM. The “Percentage Cell Growth” value (SK-MEL-28; single dose 10 µM) was −31.42%, the “MID b, average sensitivity” value (NSCL cancer subpanel) was 18.71 µM and the “Selectivity, ratio MID a: MID b” value (NSCL cancer subpanel) was 1.09. For the same molecule, the GI50 (EKVX; [2]) was 23.3 µM, the “Percentage Cell Growth” value (EKVX; single dose 10 µM) was −15.68% and the GI50 (SNB-19; [2]) was 24.7 µM. The “Percentage Cell Growth” value (SNB-19; single dose 10 µM) was −29.49%, the GI50 (KM12; [2]) was 17.3 µM and the “Percentage Cell Growth” value (KM12; single dose 10 µM) was −25.31%. For the same molecule, the activity at 10 µM (SW-620; single dose 10 µM, read-out: Percentage Cell Growth) was -36.2%, the GI50 (SW-620; five concentrations, SRB, read-out: GI50) was 22.5 µM and the “Percentage Cell Growth” value (786-0; single dose 10 µM) was −22.61%. The GI50 (786-0; [2]) was 23.2 µM, the “Percentage Cell Growth” value (BT-549; single dose 10 µM) was −2.14% and the GI50 (BT-549; [2]) was 23.8 µM. For the same molecule, the GI50 (OVCAR-4) was 25.6 µM, the activity at 10 µM (HT29; HT-29, 48 h, single dose 10 µM, read-out: Percentage Cell Growth) was 3.9% and the GI50 (HT29; HT-29, five concentrations, 48 h, SRB, read-out: GI50) was 6.95 µM. For the same molecule, the GI50 (NCI-H226; [2]) was 21.2 µM, the “Percentage Cell Growth” value (NCI-H226; single dose 10 µM) was 36.64% and the GI50 (T-47D; Homo sapiens, T47D, five concentrations, 48 h, SRB, read-out: GI50) was 13.1 µM. For the same molecule, the “Percentage Cell Growth” value (T-47D; single dose 10 µM) was −12.76%, the GI50 (K-562; Homo sapiens, K562, five concentrations, 48 h, SRB, read-out: GI50) was 9.84 µM and the “Percentage Cell Growth” value (K-562; single dose 10 µM) was 1.10%. For the same molecule, the GI50 (NCI-H322M; [2]) was 17.6 µM, the “Percentage Cell Growth” value (NCI-H322M; single dose 10 µM) was −68.83% and the GI50 (NCI-H522; [2]) was 21 µM. The “Percentage Cell Growth” value (NCI-H522; single dose 10 µM) was −16.98%, the “Percentage Cell Growth” value (HCC-2998; single dose 10 µM) was −23.40% and the GI50 (HCC-2998; [2]) was 21.4 µM. For the same molecule, the GI50 (MALME-3M; [2]) was 23.3 µM, the “Percentage Cell Growth” value (MALME-3M; single dose 10 µM) was −18.76% and the “MID b, average sensitivity” value (Ovarian Cancer subpanel) was 24.63 µM. For the same molecule, the “Selectivity, ratio MID a: MID b” value (Ovarian Cancer subpanel) was 0.83, the “Percentage Cell Growth” value (CAKI-1; single dose 10 µM) was −54.52% and the GI50 (CAKI-1; [2]) was 21.9 µM. The GI50 (SF-539; [2]) was 17.9 µM, the “Percentage Cell Growth” value (SF-539; single dose 10 µM) was −36.20% and the GI50 (SK-OV-3; [2]) was 17.7 µM. For the same molecule, the “Percentage Cell Growth” value (SK-OV-3; single dose 10 µM) was −27.22%, the “Percentage Cell Growth” value (HCT-15; single dose 10 µM) was −22.06% and the GI50 (HCT-15; [2]) was 21.7 µM. For the same molecule, the GI50 (UO-31; [2]) was 38.9 µM, the “Percentage Cell Growth” value (UO-31; single dose 10 µM) was −34.32% and the GI50 (SK-MEL-2; [2]) was 27.3 µM. For the same molecule, the “Percentage Cell Growth” value (SK-MEL-2; single dose 10 µM) was −24.21%, the GI50 (NCI-H23; [2]) was 22.6 µM and the “Percentage Cell Growth” value (NCI-H23; single dose 10 µM) was −8.47%. The GI50 (PC-3; [2]) was 12.6 µM, the “Percentage Cell Growth” value (PC-3; single dose 10 µM) was −53.78% and the “MID b, average sensitivity” value (Melanoma subpanel) was 24.33 µM. The “Selectivity, ratio MID a: MID b” value (Melanoma subpanel) was 0.84.
